Measurements published in patent publication US10266497B2 (ABIDE THERAPEUTICS, INC., priority 2017, dated 2019).

Assays:
MAGL [1] = target: T1, MAGL (Mus musculus, UniProt O35678); experiment: In vitro competitive activity-based protein profiling, MAGL, mouse; conditions: read-out: MAGL % inh. 1 μM (mouse)
T1 sequence (O35678 1-303): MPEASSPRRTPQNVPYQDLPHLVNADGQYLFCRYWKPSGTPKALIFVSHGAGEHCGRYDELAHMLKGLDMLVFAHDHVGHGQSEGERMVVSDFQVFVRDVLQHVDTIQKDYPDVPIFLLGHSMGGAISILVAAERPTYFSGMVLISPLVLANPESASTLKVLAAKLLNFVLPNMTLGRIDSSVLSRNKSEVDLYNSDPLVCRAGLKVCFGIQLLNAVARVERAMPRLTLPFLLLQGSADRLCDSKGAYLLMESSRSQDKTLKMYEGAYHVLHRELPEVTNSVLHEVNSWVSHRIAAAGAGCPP

MAGL [2] = target: T2, MAGL (Homo sapiens, UniProt Q99685); experiment: In vitro competitive activity-based protein profiling, MAGL, human; conditions: for inhibition at 1 µM: read-out: MAGL % inh. 1 μM (human)
T2 sequence (Q99685 1-303): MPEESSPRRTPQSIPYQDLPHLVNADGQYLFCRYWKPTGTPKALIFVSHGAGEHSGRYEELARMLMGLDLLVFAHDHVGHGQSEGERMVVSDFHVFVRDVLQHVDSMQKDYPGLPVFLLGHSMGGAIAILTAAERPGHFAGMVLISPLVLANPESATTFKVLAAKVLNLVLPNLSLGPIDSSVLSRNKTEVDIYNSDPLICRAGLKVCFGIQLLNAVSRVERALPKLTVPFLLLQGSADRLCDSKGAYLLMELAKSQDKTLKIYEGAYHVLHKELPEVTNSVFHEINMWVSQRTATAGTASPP

FAAH [3] = target: T3, FAAH (Mus musculus, UniProt O08914); experiment: In vitro competitive activity-based protein profiling, FAAH, mouse; conditions: read-out: FAAH % inh. 1 μM (mouse)
T3 sequence (O08914 1-579): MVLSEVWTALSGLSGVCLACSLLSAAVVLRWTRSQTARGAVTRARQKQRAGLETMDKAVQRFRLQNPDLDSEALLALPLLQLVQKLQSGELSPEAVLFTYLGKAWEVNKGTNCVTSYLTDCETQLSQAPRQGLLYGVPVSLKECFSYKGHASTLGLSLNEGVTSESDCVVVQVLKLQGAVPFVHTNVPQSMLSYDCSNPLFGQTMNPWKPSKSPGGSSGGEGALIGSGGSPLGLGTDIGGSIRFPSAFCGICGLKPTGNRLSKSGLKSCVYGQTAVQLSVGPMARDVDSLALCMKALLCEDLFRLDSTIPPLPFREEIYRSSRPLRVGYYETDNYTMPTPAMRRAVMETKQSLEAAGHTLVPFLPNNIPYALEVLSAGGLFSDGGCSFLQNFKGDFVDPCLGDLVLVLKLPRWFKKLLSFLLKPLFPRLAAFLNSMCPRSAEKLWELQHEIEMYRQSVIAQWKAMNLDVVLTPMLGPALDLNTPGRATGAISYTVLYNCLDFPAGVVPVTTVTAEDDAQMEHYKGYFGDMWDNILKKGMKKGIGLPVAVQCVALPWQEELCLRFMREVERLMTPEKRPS

FAAH [4] = target: T4, FAAH (Homo sapiens, UniProt O00519); experiment: In vitro competitive activity-based protein profiling, FAAH, human; conditions: for inhibition at 1 µM: read-out: FAAH % inh. 1 μM (human)
T4 sequence (O00519 1-579): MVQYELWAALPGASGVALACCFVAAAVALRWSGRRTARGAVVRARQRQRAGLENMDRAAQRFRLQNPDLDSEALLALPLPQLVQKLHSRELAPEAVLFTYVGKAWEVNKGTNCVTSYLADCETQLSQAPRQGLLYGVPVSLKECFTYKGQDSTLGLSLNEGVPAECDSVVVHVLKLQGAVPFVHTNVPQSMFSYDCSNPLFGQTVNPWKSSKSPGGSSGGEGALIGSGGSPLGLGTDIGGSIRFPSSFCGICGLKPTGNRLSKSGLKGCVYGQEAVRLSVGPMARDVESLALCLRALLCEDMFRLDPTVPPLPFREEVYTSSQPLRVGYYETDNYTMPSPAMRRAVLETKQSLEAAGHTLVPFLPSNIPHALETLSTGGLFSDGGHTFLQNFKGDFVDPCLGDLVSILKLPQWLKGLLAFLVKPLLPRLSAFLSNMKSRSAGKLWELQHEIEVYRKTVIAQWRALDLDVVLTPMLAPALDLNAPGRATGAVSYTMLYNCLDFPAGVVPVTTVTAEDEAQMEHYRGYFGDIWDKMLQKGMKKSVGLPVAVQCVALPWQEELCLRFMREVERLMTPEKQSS

Structure (SMILES) | inhibition at 1 µM (MAGL [1]) [%] | IC50 (MAGL [2]) [nM] | inhibition at 1 µM (MAGL [2]) [%] | inhibition at 1 µM (FAAH [3]) [%] | IC50 (FAAH [4]) [nM] | inhibition at 1 µM (FAAH [4]) [%]
Cc1cc(-c2ccccc2)ccc1CN1CCN(C(=O)n2ccc(C(=O)O)n2)C(C)C1 (centres unmarked) [Example 89, 1-(2-methyl-4-((3-methyl-[1,1′-biphenyl]-4-yl)methyl)piperazine-1-carbonyl)-1H-pyrazole-3-carboxylic acid] | > 75 | – | > 75 | > 75 | 100 to 1000 | > 75
O=C(O)c1ccn(C(=O)N2CCN(Cc3cccc(Oc4ccncc4)c3)CC2)n1 [Example 59, 1-(4-(3-(pyridin-4-yloxy)benzyl)piper-azine-1-carbonyl)-1H-pyrazole-3-carboxylic acid] | > 75 | – | > 75 | 0 to 25 | – | 0 to 25
CN(Cc1cccc(Cl)c1N1CCCC1)C1(C)CCN(C(=O)n2ccc(C(=O)O)n2)CC1 [Example 47, 1-(4-((3-chloro-2-(pyrrolidin-1-yl)benzyl)(methyl)amino)-4-methylpiperidine-1-carbonyl)-1H-pyrazole-3-carboxylic acid] | > 75 | – | > 75 | 0 to 25 | – | 0 to 25
Cc1cc(-c2ccccc2)ccc1CN1CCN(C(=O)n2ccc(C(=O)O)n2)CC1 [Example 16, 1-(4-((3-Methyl-[1,1′-biphenyl]-4-yl)methyl)piperazine-1-carbonyl)-1H-pyrazole-3-carboxylic Acid] | > 75 | – | > 75 | 50 to 75 | 1000 to 10000 | 0 to 25
O=C(O)c1ccn(C(=O)N2CCC(OCc3cc(F)cc(Cl)c3)CC2)n1 [Example 42, 1-(4-((3-chloro-5-fluorobenzyl)oxy)piperidine-1-carbonyl)-1H-pyrazole-3-carboxylic acid] | > 75 | 100 to 1000 | > 75 | 0 to 25 | 100 to 1000 | > 75
O=C(O)c1ccn(C(=O)N2CCN(Cc3cc(N4CCCC4)cc(C(F)(F)F)c3)CC2)n1 [Example 87, 1-(4-(3-(pyrrolidin-1-yl)-5-(trifluoromethyl)benzyl)piperazine-1-carbonyl)-1H-pyrazole-3-carboxylic acid] | > 75 | – | > 75 | 0 to 25 | – | 0 to 25
O=C(O)c1ccn(C(=O)N2CCC3(CCN(Cc4cc(Cl)cc(N5CCCC5)c4)C3)CC2)n1 [Example 44, 1-(2-(3-chloro-5-(pyrrolidin-1-yl)benzyl)-2,8-diazaspiro[4.5]decane-8-carbonyl)-1H-pyrazole-3-carboxylic acid] | > 75 | – | > 75 | 0 to 25 | – | 0 to 25

Further lines, results first:

inhibition at 1 µM (MAGL [1]) [%] | IC50 (MAGL [2]) [nM] | inhibition at 1 µM (MAGL [2]) [%] | inhibition at 1 µM (FAAH [3]) [%] | IC50 (FAAH [4]) [nM] | inhibition at 1 µM (FAAH [4]) [%] | Structure (SMILES)
> 75 | 100 to 1000 | > 75 | 0 to 25 | 1000 to 10000 | 0 to 25 | O=C(O)c1ccn(C(=O)N2CCC3(CCN(Cc4ccc(Cl)cc4N4CCCC4)C3)CC2)n1 [Example 171, 1-(2-(4-chloro-2-(pyrrolidin-1-yl)benzyl)-2,8-diazaspiro[4.5]decane-8-carbonyl)-1H-pyrazole-3-carboxylic acid]
> 75 | – | > 75 | 50 to 75 | – | > 75 | Cc1cc(CO[C@H]2C[C@@H]3CN(C(=O)n4ccc(C(=O)O)n4)C[C@@H]3C2)ccc1C(F)(F)F [Example 172, 1-(trans-5-((3-methyl-4-(trifluoromethyl)benzyl)oxy)octa-hydrocyclopenta[c]pyrrole-2-carbonyl)-1H-pyrazole-3-carboxylic acid]
> 75 | – | > 75 | > 75 | 100 to 1000 | > 75 | Cc1cn(C(=O)N2CCN(Cc3cccc(Oc4ccc(Cl)cc4)c3)CC2)nc1C(=O)O [Example 129, 1-(4-(3-(4-chlorophenoxy)benzyl)piperazine-1-carbonyl)-4-methyl-1H-pyrazole-3-carboxylic acid]
> 75 | 100 to 1000 | > 75 | 0 to 25 | 1000 to 10000 | 0 to 25 | Cc1cc(CN2CCC3(CCN(C(=O)n4ccc(C(=O)O)n4)CC3)C2)ccc1C(F)(F)F [Example 155, 1-(2-(3-methyl-4-(trifluoromethyl)benzyl)-2,8-diazaspiro[4.5]decane-8-carbonyl)-1H-pyrazole-3-carboxylic acid]
> 75 | – | > 75 | 25 to 50 | – | 0 to 25 | NC(=O)c1ccn(C(=O)N2CCC3(CCCN3Cc3ccc(C(F)(F)F)cc3N3CCCC3)CC2)n1 [Example 174, 1-(1-(2-(pyrrolidin-1-yl)-4-(trifluoromethyl)benzyl)-1,8-diazaspiro[4.5]decane-8-carbonyl)-1H-pyrazole-3-carboxamide]
> 75 | – | > 75 | 25 to 50 | – | 0 to 25 | O=C(O)c1ccn(C(=O)N2CCC3(CCN(Cc4cccc(OC(F)(F)F)c4)C3)CC2)n1 [Example 153, 1-(2-(3-(trifluoromethoxy)benzyl)-2,8-diazaspiro[4.5]decane-8-carbonyl)-1H-pyrazole-3-carboxylic acid]
> 75 | – | > 75 | > 75 | – | > 75 | C#Cc1ccc(CN2CCN(C(=O)n3ccc(C(N)=O)n3)CC2)cc1 [Example 144, 1-(4-(4-ethynylbenzyl)piper-azine-1-carbonyl)-1H-pyrazole-3-carboxamide]
25 to 50 | – | > 75 | 0 to 25 | – | 0 to 25 | O=C(O)c1ccn(C(=O)N2CCC3(CCN(Cc4cccc(C(F)(F)F)c4)C3)CC2)n1 [Example 192, 1-(2-(3-(trifluoromethyl)benzyl)-2,8-diazaspiro[4.5]decane-8-carbonyl)-1H-pyrazole-3-carboxylic acid]
> 75 | – | > 75 | 50 to 75 | – | 0 to 25 | O=C(O)c1ccn(C(=O)N2CCC3(CCN(Cc4cc(F)cc(C(F)(F)F)c4)C3)CC2)n1 [Example 152, 1-(2-(3-fluoro-5-(trifluoromethyl)benzyl)-2,8-diazaspiro[4.5]decane-8-carbonyl)-1H-pyrazole-3-carboxylic acid]
> 75 | – | > 75 | 0 to 25 | – | 0 to 25 | O=C(O)c1ccn(C(=O)N2CCN(Cc3ccc(Cl)cc3N3CCN(C4CC4)CC3)CC2)n1 [Example 97, 1-(4-(4-chloro-2-(4-cyclopropylpiper-azin-1-yl)benzyl)piperazine-1-carbonyl)-1H-pyrazole-3-carboxylic acid]
